Read-outs that look alike come from different tables or passages of the source.
How the values were obtained:
Assay type in all cases: cell-based, human
Breast cancer cell lines = test: NCI anticancer screen, SRB assay, panel summary; settings: Homo sapiens
How it was run: (§1)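 Sulforhodamine B protein assay read cell growth after 48 h of continuous compound exposure. Dose-response curves per cell line used at least five 10-fold-diluted concentrations, within a panel of fifty-three human lines from nine tumour types.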

Renal cancer cell lines = test: NCI anticancer screen, SRB assay, panel summary; settings: Homo sapiens, Renal panel
How it was run: as §1

Colon cancer cell lines = test: NCI anticancer screen, SRB assay, panel summary; settings: for GI50: Homo sapiens
How it was run: as §1

[1] = test system: Melanoma cancer cell lines; test: NCI anticancer screen, SRB assay, panel summary; settings: for GI50: Homo sapiens
How it was run: as §1

[2] = test system: Non-small cell lung cancer cell lines; test: NCI anticancer screen, SRB assay, panel summary; settings: Homo sapiens
How it was run: as §1

[3] = test system: Leukemia cancer cell lines; test: NCI anticancer screen, SRB assay, panel summary; settings: Homo sapiens
How it was run: as §1

[4] = test system: Ovarian cancer cell lines; test: NCI anticancer screen, SRB assay, panel summary; settings: Homo sapiens
How it was run: as §1

[5] = test system: Prostate cancer cell lines; test: NCI anticancer screen, SRB assay, panel summary
How it was run: as §1

CNS cancer cell lines = test: NCI anticancer screen, SRB assay, panel summary; settings: for GI50: Homo sapiens
How it was run: as §1

A498 (renal) = test: NCI anticancer screen, SRB assay, 48 h; settings: Homo sapiens
How it was run: as §1

HCC-2998 (colon) = test: NCI anticancer screen, SRB assay, 48 h; settings: Homo sapiens
How it was run: as §1

HT29 (colon) = test: NCI anticancer screen, SRB assay, 48 h; settings: Homo sapiens
How it was run: as §1

SF-539 (CNS) = test: NCI anticancer screen, SRB assay, 48 h; settings: Homo sapiens
How it was run: as §1

M14 (melanoma) = test: NCI anticancer screen, SRB assay, 48 h; settings: Homo sapiens
How it was run: as §1

[6] = test system: NCI-H460 (non-small cell lung); test: NCI anticancer screen, SRB assay, 48 h; settings: Homo sapiens
How it was run: as §1

[7] = test system: HOP-92 (non-small cell lung); test: NCI anticancer screen, SRB assay, 48 h; settings: Homo sapiens
How it was run: as §1

SF-295 (CNS) = test: NCI anticancer screen, SRB assay, 48 h; settings: Homo sapiens
How it was run: as §1

MDA-MB-231/ATCC (breast) = test: NCI anticancer screen, SRB assay, 48 h; settings: Homo sapiens
How it was run: as §1

OVCAR-3 (ovarian) = test: NCI anticancer screen, SRB assay, 48 h; settings: Homo sapiens
How it was run: as §1

BT-549 (breast) = test: NCI anticancer screen, SRB assay, 48 h; settings: Homo sapiens
How it was run: as §1

SNB-75 (CNS) = test: NCI anticancer screen, SRB assay, 48 h; settings: Homo sapiens
How it was run: as §1

SK-MEL-2 (melanoma) = test: NCI anticancer screen, SRB assay, 48 h; settings: Homo sapiens
How it was run: as §1

[8] = test system: A549/ATCC (non-small cell lung); test: NCI anticancer screen, SRB assay, 48 h; settings: Homo sapiens
How it was run: as §1

ACHN (renal) = test: NCI anticancer screen, SRB assay, 48 h; settings: Homo sapiens
How it was run: as §1

TD-47D (breast) = test: NCI anticancer screen, SRB assay, 48 h; settings: Homo sapiens
How it was run: as §1

SK-MEL-28 (melanoma) = test: NCI anticancer screen, SRB assay, 48 h; settings: Homo sapiens
How it was run: as §1

LOX IMVI (melanoma) = test: NCI anticancer screen, SRB assay, 48 h; settings: Homo sapiens
How it was run: as §1

SN12C (renal) = test: NCI anticancer screen, SRB assay, 48 h; settings: Homo sapiens, SN12C
How it was run: as §1

PC-3 (prostate) = test: NCI anticancer screen, SRB assay, 48 h; settings: Homo sapiens
How it was run: as §1

HS 578T (breast) = test: NCI anticancer screen, SRB assay, 48 h; settings: Homo sapiens
How it was run: as §1

KM12 (colon) = test: NCI anticancer screen, SRB assay, 48 h; settings: Homo sapiens
How it was run: as §1

[9] = test system: NCI-H23 (non-small cell lung); test: NCI anticancer screen, SRB assay, 48 h; settings: Homo sapiens
How it was run: as §1

COLO 205 (colon) = test: NCI anticancer screen, SRB assay, 48 h; settings: Homo sapiens, COLO 205
How it was run: as §1

[10] = 48 h exposure, SRB, read-out: GI50
[11] = read-out: pGI50 (-log of molar concentration causing 50% inhibition of net cell growth) (converted)

## O=C(/C=C/c1cccc(O)c1)c1cccc(-n2cc(-c3ccccc3)[nH]c2=O)c1 [4a, 1-3-[(E)-3-(3-hydroxyphenyl)-2-propenoyl]phenyl-4-phenyl-2,3-dihydro-1H-2-imidazolone]
Breast cancer cell lines; Breast panel, log of concentration in mol/L causing 50% inhibition of net cell growth, read-out: mean graph midpoint (MG_MID) of Log10 GI50 (converted)
  GI50: 4.79 µM
Breast cancer cell lines; Breast panel, log of concentration leading to 50% net cell death, read-out: mean graph midpoint (MG_MID) of Log10 LC50 (converted)
  LC50: 72.4 µM
Breast cancer cell lines; five breast cancer cell lines, exposure at least 48 hrs, read-out: GI50, range over the panel
  GI50: 2.47 to 9.32 µM
Renal cancer cell lines; log of concentration in mol/L causing 50% inhibition of net cell growth, read-out: mean graph midpoint (MG_MID) of Log10 GI50 (converted)
  GI50: 4.17 µM
Renal cancer cell lines; log of concentration leading to 50% net cell death, read-out: mean graph midpoint (MG_MID) of Log10 LC50 (converted)
  LC50: 33.9 µM
Colon cancer cell lines; Colon panel, log of concentration leading to 50% net cell death
  mean graph midpoint (MG_MID) of Log10 LC50: 4.55
Colon cancer cell lines; Colon panel, log of concentration in mol/L causing 50% inhibition of net cell growth, read-out: mean graph midpoint (MG_MID) of Log10 GI50 (converted)
  GI50: 2.75 µM
Colon cancer cell lines; seven colon cancer cell lines, exposure at least 48 hrs, read-out: GI50, range over the panel
  GI50: 1.83 to 4.09 µM
[1]; Melanoma panel, log of concentration in mol/L causing 50% inhibition of net cell growth, read-out: mean graph midpoint (MG_MID) of Log10 GI50 (converted)
  GI50: 4.47 µM
[1]; nine melanoma cancer cell lines, exposure at least 48 hrs, read-out: GI50, range over the panel
  GI50: 1.85 to 8.26 µM
[1]; Melanoma panel, log of concentration leading to 50% net cell death
  mean graph midpoint (MG_MID) of Log10 LC50: 4.35
[2]; Non-small cell lung panel, log of concentration in mol/L causing 50% inhibition of net cell growth, read-out: mean graph midpoint (MG_MID) of Log10 GI50 (converted)
  GI50: 6.92 µM
[2]; nine non-small cell lung cancer cell lines, exposure at least 48 hrs, read-out: GI50, range over the panel
  GI50: 2.49 to 24.8 µM
[3]; Leukemia panel, log of concentration in mol/L causing 50% inhibition of net cell growth, read-out: mean graph midpoint (MG_MID) of Log10 GI50 (converted)
  GI50: 2.29 µM
[3]; Leukemia panel, log of concentration leading to 50% net cell death, read-out: mean graph midpoint (MG_MID) of Log10 LC50 (converted)
  LC50: ≥ 100 µM
[3]; two leukemia cancer cell lines (RPMI-8226 and K-562), exposure at least 48 hrs, read-out: GI50, range over the panel
  GI50: 2.12 to 3.35 µM
[4]; Ovarian panel, log of concentration in mol/L causing 50% inhibition of net cell growth, read-out: mean graph midpoint (MG_MID) of Log10 GI50 (converted)
  GI50: 4.68 µM
[4]; Ovarian panel, log of concentration leading to 50% net cell death, read-out: mean graph midpoint (MG_MID) of Log10 LC50 (converted)
  LC50: 46.8 µM
[4]; six ovarian cancer cell lines, exposure at least 48 hrs, read-out: GI50, range over the panel
  GI50: 2.8 to 11.1 µM
[5]; Homo sapiens, log of concentration in mol/L causing 50% inhibition of net cell growth, read-out: mean graph midpoint (MG_MID) of Log10 GI50 (converted)
  GI50: 2.82 µM
[5]; Homo sapiens, log of concentration leading to 50% net cell death, read-out: mean graph midpoint (MG_MID) of Log10 LC50 (converted)
  LC50: 49 µM
[5]; log of concentration resulting in total inhibition of net cell growth
  mean graph midpoint (MG_MID) of Log10 TGI: 4.90
CNS cancer cell lines; CNS panel, log of concentration leading to 50% net cell death
  mean graph midpoint (MG_MID) of Log10 LC50: 4.60
CNS cancer cell lines; CNS panel, log of concentration in mol/L causing 50% inhibition of net cell growth, read-out: mean graph midpoint (MG_MID) of Log10 GI50 (converted)
  GI50: 5.75 µM
CNS cancer cell lines; six CNS cancer cell lines, exposure at least 48 hrs, read-out: GI50, range over the panel
  GI50: 1.61 to 18.2 µM
A498 (renal); [10]
  GI50: 14.3 µM
A498 (renal); [11]
  GI50: 14.5 µM
HCC-2998 (colon); [10]
  GI50: 4.09 µM
HCC-2998 (colon); [11]
  GI50: 4.07 µM
HT29 (colon); HT-29, 48 h exposure, SRB, read-out: GI50
  GI50: 3.33 µM
HT29 (colon); HT-29, read-out: pGI50 (-log of molar concentration causing 50% inhibition of net cell growth) (converted)
  GI50: 3.31 µM
SF-539 (CNS); [10]
  GI50: 1.98 µM
SF-539 (CNS); [11]
  GI50: 2 µM
M14 (melanoma); [10]
  GI50: 4.53 µM
M14 (melanoma); [11]
  GI50: 4.57 µM
[6]; [10]
  GI50: 2.49 µM
[6]; [11]
  GI50: 2.51 µM
[7]; [10]
  GI50: 5.04 µM
[7]; [11]
  GI50: 5.01 µM
SF-295 (CNS); [10]
  GI50: 18.2 µM
SF-295 (CNS); [11]
  GI50: 18.2 µM
MDA-MB-231/ATCC (breast); [10]
  GI50: 3.86 µM
MDA-MB-231/ATCC (breast); [11]
  GI50: 3.89 µM
OVCAR-3 (ovarian); [10]
  GI50: 3.08 µM
OVCAR-3 (ovarian); [11]
  GI50: 3.09 µM
BT-549 (breast); [10]
  GI50: 9.32 µM
BT-549 (breast); [11]
  GI50: 9.33 µM
SNB-75 (CNS); [10]
  GI50: 12.1 µM
SNB-75 (CNS); [11]
  GI50: 12 µM
SK-MEL-2 (melanoma); [10]
  GI50: 8.26 µM
SK-MEL-2 (melanoma); [11]
  GI50: 8.32 µM
[8]; [10]
  GI50: 3.89 µM
[8]; [11]
  GI50: 3.89 µM
ACHN (renal); [10]
  GI50: 2.76 µM
ACHN (renal); [11]
  GI50: 2.75 µM
TD-47D (breast); [10]
  GI50: 4.24 µM
TD-47D (breast); [11]
  GI50: 4.27 µM
SK-MEL-28 (melanoma); [10]
  GI50: 5.63 µM
SK-MEL-28 (melanoma); [11]
  GI50: 5.62 µM
LOX IMVI (melanoma); [10]
  GI50: 1.85 µM
LOX IMVI (melanoma); [11]
  GI50: 1.86 µM
SN12C (renal); SN 12C, read-out: pGI50 (-log of molar concentration causing 50% inhibition of net cell growth) (converted)
  GI50: 3.16 µM
SN12C (renal); [10]
  GI50: 3.14 µM
PC-3 (prostate); PC-3, read-out: pGI50 (-log of molar concentration causing 50% inhibition of net cell growth) (converted)
  GI50: 2.82 µM
PC-3 (prostate); one prostate cancer cell line (PC-3), exposure at least 48 hrs, read-out: GI50
  GI50: 2.82 µM
HS 578T (breast); [10]
  GI50: 6.14 µM
HS 578T (breast); [11]
  GI50: 6.17 µM
KM12 (colon); [10]
  GI50: 1.83 µM
KM12 (colon); [11]
  GI50: 1.82 µM
[9]; [10]
  GI50: 3.35 µM
[9]; [11]
  GI50: 3.39 µM
COLO 205 (colon); COLO205, read-out: pGI50 (-log of molar concentration causing 50% inhibition of net cell growth) (converted)
  GI50: 2 µM
COLO 205 (colon); [10]
  GI50: 2.01 µM
